Consider three compounds from publication PMC3361267 (Journal of Medicinal Chemistry, 2012).

For orientation: IC50 means the concentration needed to halve the response being measured. One may read the Km as the substrate concentration at which the rate is half of its maximum.

One data set relates to MRP2. The following applies: read-out: IC50 (MRP2); cited from earlier work.
The subject of the next data set is BCRP. The conditions noted are these: read-out: IC50 (BCRP); cited from earlier work.
A further data set relates to MDR1. The conditions noted are these: read-out: IC50 (MDR1); cited from earlier work.
For data set [1] the following is noted: cited from earlier work.
The target in another data set is T1, OATP1B1 (Homo sapiens, UniProt Q9Y6L6).
T1 sequence (Q9Y6L6 1-691): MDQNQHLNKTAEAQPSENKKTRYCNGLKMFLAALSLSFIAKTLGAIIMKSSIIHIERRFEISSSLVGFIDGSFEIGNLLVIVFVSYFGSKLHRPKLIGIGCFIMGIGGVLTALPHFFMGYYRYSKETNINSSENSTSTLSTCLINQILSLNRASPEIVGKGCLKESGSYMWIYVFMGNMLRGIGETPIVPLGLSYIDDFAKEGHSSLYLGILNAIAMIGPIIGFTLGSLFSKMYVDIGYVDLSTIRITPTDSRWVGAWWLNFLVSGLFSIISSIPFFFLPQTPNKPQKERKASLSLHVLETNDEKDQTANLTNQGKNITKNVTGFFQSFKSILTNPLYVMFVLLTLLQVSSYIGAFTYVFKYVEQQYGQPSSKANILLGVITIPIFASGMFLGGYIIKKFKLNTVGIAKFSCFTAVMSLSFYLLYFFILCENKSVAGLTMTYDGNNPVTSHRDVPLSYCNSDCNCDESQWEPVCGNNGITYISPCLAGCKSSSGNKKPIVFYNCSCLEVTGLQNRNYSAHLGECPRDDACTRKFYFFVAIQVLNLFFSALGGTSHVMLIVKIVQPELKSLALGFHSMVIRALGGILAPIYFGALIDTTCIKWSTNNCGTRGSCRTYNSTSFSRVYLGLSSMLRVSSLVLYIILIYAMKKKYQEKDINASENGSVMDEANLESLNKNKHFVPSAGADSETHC
Description: Transport kinetics of substrate uptake in OATP1B1-HEK293 cells. The conditions noted are these: OATP1B1 mediated uptake. The class given is cell-based.

A further data set addresses T2, OATP1B3 (Homo sapiens, UniProt Q9NPD5).
T2 sequence (Q9NPD5 1-702): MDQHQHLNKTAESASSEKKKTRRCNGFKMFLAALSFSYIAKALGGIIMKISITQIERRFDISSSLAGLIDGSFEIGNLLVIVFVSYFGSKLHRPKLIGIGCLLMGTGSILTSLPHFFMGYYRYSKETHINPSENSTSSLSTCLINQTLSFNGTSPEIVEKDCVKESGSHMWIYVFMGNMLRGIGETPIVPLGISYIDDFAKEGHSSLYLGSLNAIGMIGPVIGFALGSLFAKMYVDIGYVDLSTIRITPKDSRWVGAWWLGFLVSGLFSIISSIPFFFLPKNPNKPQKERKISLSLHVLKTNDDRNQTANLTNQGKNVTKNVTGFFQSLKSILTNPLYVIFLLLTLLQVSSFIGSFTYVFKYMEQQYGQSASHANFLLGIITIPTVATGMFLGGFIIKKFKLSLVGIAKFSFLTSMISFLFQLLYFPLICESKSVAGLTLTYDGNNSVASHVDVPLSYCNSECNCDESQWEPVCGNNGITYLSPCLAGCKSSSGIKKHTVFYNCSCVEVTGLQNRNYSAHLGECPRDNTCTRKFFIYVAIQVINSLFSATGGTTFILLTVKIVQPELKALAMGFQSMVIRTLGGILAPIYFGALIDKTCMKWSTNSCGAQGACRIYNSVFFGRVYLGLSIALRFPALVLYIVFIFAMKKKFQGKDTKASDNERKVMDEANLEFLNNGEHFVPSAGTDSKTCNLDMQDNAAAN

SMILES strings stand for the structures.

In the case of `CN(C)C(=O)CCSC(SCCC(=O)O)c1cccc(/C=C/c2ccc3ccc(Cl)cc3n2)c1` (stereo not shown) [MK571], the IC50 in the data set on MRP2 is 10 µM; in the data set with BCRP, 50 µM; in the data set with MDR1, 26 µM.
With `CC[C@H]1OC(=O)[C@H](C)[C@@H](O[C@H]2C[C@@](C)(OC)[C@@H](O)[C@H](C)O2)[C@H](C)[C@@H](O[C@@H]2O[C@H](C)C[C@H](N(C)C)[C@H]2O)[C@](C)(OC)C[C@@H](C)C(=O)[C@H](C)[C@@H](O)[C@]1(C)O` [clarithromycin, Clarithromycin], the “increase of atorvastatin AUC” value in data set [1] is recorded as 4.5 fold.
Turning to `C[C@]12CC[C@@H]3c4ccc(O)cc4CC[C@H]3[C@@H]1CC[C@@H]2O[C@@H]1O[C@H](C(=O)O)[C@@H](O)[C@H](O)[C@H]1O` [estradiol-17β-glucuronide], at OATP1B1, the Km was found to be 12.2 ± 5.94 µM and the Vmax is 15.44 ± 3.44 pmol/mg protein/min. Besides, at OATP1B3, the Vmax/Km turned out to be 0.86 μL/mg protein/min.
